Assay results from publication PMC6688628, “N-Substituted Pyrrole Derivative 12m Inhibits HIV-1 Entry by Targeting Gp41 of HIV-1 Envelope Glycoprotein” (Frontiers in Pharmacology, 2019).

Columns and labels:
[1] = system: HIV-1JR-FL Env mutant W571A pseudovirus; type: cell-based; details: compared with wild-type HIV-1JR-FL pseudovirus
[2] = system: HIV-1 NL4-3(36G)N42T,N43K; details: T20-resistant NL4-3(36G)N42T,N43K; p24 ELISA; mean ± SD
[3] = system: HIV-1 NL4-3(36G)V38A,N42D; details: T20-resistant NL4-3(36G)V38A,N42D; p24 ELISA; mean ± SD
[4] = system: HIV-1JR-FL Env mutant Q577A pseudovirus; type: cell-based; details: compared with wild-type HIV-1JR-FL pseudovirus
HIV-1 IIIB = test: Cell-cell HIV-1 IIIB transmission, MT-2 to CEMx174 5.25 M7 cells; type: cell-based; details: Human immunodeficiency virus 1, IIIB; infected MT-2 to CEMx174 5.25 M7 cells; luciferase
Experimental: (§1) Inhibition of fusion between MT-2 cells infected by HIV-1 strains (X4 and R5 viruses) with CEMx174 5.25 M7 cells, which express CD4 and both coreceptors, CXCR4 and CCR5, was determined by a luciferase assay. Briefly, MT-2 cells were infected with the corresponding HIV-1 strains for 7 days. The infected MT-2 cells were washed three times and resuspended in culture medium to 2 × 10^5/ml. Then, 50 μl of a compound at graded concentrations in triplicate was incubated with equal volumes of HIV-1-infected MT-2 cells at 37°C for 30 min. Next, 100 μl of CEMx174 5.25 M7 cells (4 × 10^5/ml) was added, and the cells were incubated at 37°C for 3 days. The cells were collected, washed, and lysed with the lysing reagent included in the luciferase kit (Promega, Corp., Madison, Wis). Aliquots of cell lysates were transferred to 96-well flat-bottom luminometer plates (Costar), followed by the addition of luciferase substrate (Promega). Luciferase activity was measured using an Ultra 384 luminometer. ADS-J1 was used as a positive control for all cell–cell fusion assays.

[5] = system: HIV-1 Env-mediated fusion of CHO-WT cells with MT-2 cells; test: HIV-1 Env-mediated cell-cell fusion (syncytium formation); type: cell-based; details: Human immunodeficiency virus 1, MT2; CHO-WT effector cells, MT-2 target cells; 48 h
Experimental: Here, a noninfectious cell–cell fusion assay was used to determine the effect of NSPD-12m on the early step of HIV-1 entry into a target cell as described previously ([Li et al., 2010]). Briefly, 1 × 10^5 CHO-WT cells expressing the HIV-1 envelope glycoprotein gp160 (as the effector cells) were preincubated with graded concentrations of NSPD-12m at 37°C for 30 min. Then, 1 × 10^5 MT-2 cells expressing the CD4 receptor and the CXCR4 coreceptor (as the target cells) were added and cocultured for another 48 h. The obvious syncytia could be counted under an inverted microscope (Nikon, Japan). Four fields per well were examined randomly. The EC50 values were calculated as described previously ([Chou and Talalay, 1984]).

XTT assay, MT-2 cells = type: cell-based; details: human
Experimental: (§2) The in vitro cell viability of NSPD-12m on HIV-1 target cells (U87-CD4-CXCR4, U87-CD4-CCR5, TZM-bl, and MT-2 cells) and HIV effector cells (CHO-WT cells) was analyzed by an XTT colorimetric assay. Briefly, 100 µl of 5 × 10^5/ml cells was mixed and incubated with 100 µl of NSPD-12m at graded concentrations at 37°C for 3 days. Then, 50 µl of XTT solution (1 mg/ml) containing 0.02 µM of phenazinemethosulphate (PMS) was added to each well, and the cells were incubated at 37°C for another 4 h. The absorbance at 450 nm was measured with an ELISA reader. The 50% cytotoxicity concentrations (CC50) were calculated using the CalcuSyn software ([Chou and Talalay, 1984]).

[6] = system: HIV-1 NL4-3(36G)V38E,N42S; details: T20-resistant NL4-3(36G)V38E,N42S; p24 ELISA; mean ± SD
HIV-1 NL4-3D36G = type: cell-based; details: T20-sensitive parent strain, p24 ELISA, mean ± SD
XTT assay, TZM-bl cells = type: cell-based; details: human
Experimental: as §2

[7] = system: HIV-1SF162 (R5 strain) Env pseudotyped virus; test: microbe, parasite or virus in culture; type: cell-based; details: Human immunodeficiency virus 1, single-cycle infection, luciferase
[8] = system: HIV-1JR-FL Env mutant K574A pseudovirus; type: cell-based; details: compared with wild-type HIV-1JR-FL pseudovirus
HIV-1 R5 virus = test: Cell-cell HIV-1 R5 transmission, MT-2 to CEMx174 5.25 M7 cells; type: cell-based; details: Human immunodeficiency virus 1; infected MT-2 to CEMx174 5.25 M7 cells; luciferase
Experimental: as §1

With `Cc1cc(/C=C2\SC(=S)N(Cc3ccccc3C(F)(F)F)C2=O)c(C)n1-c1ccc(O)c(C(=O)O)c1` [NSPD-12m] the “inhibitory activity against W571A mutant pseudovirus” value [1] was “retained the inhibitory activity”, the IC50 [2] was 4.23 ± 1.92 µM and the IC90 [2] was 29.7 ± 2.28 µM. For the same molecule, the IC50 [3] was 22.4 ± 2.84 µM, the IC90 [3] was 32.5 ± 4.95 µM and the “inhibitory activity against Q577A mutant pseudovirus” value [4] was “retained the inhibitory activity”. The EC50 (HIV-1 IIIB) was 1.99 ± 0.08 µM, the EC50 [5] was 14.4 ± 1.24 µM and the CC50 at 3 days (XTT assay, MT-2 cells) was 67.1 ± 11 µM. For the same molecule, the CC90 at 3 days (XTT assay, MT-2 cells) was 124 ± 70.2 µM, the IC50 [6] was 5.26 ± 0.762 µM and the IC90 [6] was 19.6 ± 0.552 µM. The IC50 (HIV-1 NL4-3D36G) was 10.8 ± 1.67 µM, the IC90 (HIV-1 NL4-3D36G) was 55.4 ± 16.9 µM and the CC50 at 3 days (XTT assay, TZM-bl cells) was 79 ± 11.4 µM. The CC90 at 3 days (XTT assay, TZM-bl cells) was 118 ± 18 µM, the EC50 [7] was ~19.7 µM and the “inhibitory activity against K574A mutant pseudovirus” value [8] was “significant loss”. The EC50 (HIV-1 R5 virus) was 1.42 ± 0.3 µM.
